Measured values published in PubChem BioAssay AID493102 (Broad Institute, 2011).

Test system: SK-MEL-5 TRPM1-promoter luciferase reporter, 24 h
Assay: reducers of TRPM1 reporter luminescence, concentration series – cell-based, SK-MEL-5, cherry-picked, set 4, MITF inhibitor project, dose response (AID 493102);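 note: actives lower the luciferase signal so the potency reflects inhibition of reporter expression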

COC(=O)[C@@H]1C[C@]2(OC(=O)c3ccccc3)C=CC(=O)C[C@@H]2N1C(=O)OCc1ccccc1
AC50: 14 µM

Cc1ccc(N2C(=O)NC(=O)/C(=C/C=C/c3ccco3)C2=O)cc1
AC50: 5.97 µM

CCOC(=O)c1ccc2c(c1)n(CC)c(/C=C/N(C)c1ccccc1)[n+]2CC
AC50: 3.24 µM

O=C(CCl)N1CCN(S(=O)(=O)c2ccc3c(c2)CCC3)CC1
AC50: 20.8 µM

NCCN1C(=O)S/C(=C\c2ccc3c(c2)OCO3)C1=O
AC50: 22.3 µM

O=C(NCc1ccccc1)C(=O)Nc1cccc(C(=O)O)c1
AC50: 4.85 µM

Cc1cc(N2CCOCC2)ccc1/C=C\[N+](=O)[O-]
AC50: 22.5 µM

CC(C)(C)c1ccc(OCCCNCc2ccccc2)cc1
AC50: 18.4 µM

c1ccc(-c2cn3nc4c(nc3n2)CCCC4)cc1
AC50: 5.89 µM

O=[N+]([O-])c1cc(S(=O)(=O)N2CCCCCC2)ccc1F
AC50: 9.53 µM

O=C1NC(=O)C(=Cc2ccc(-c3cc(Cl)ccc3[N+](=O)[O-])o2)C(=O)N1
AC50: 17.2 µM

O=C(CCl)Nc1cccc(Oc2ccccc2)c1
AC50: 8.07 µM

Cc1ccc(C(C)C)c(OCc2nn(CC(=O)c3ccc(OC(F)F)cc3)c3[n+]2CCCCC3)c1
AC50: 9.17 µM

O=C(NC(=S)NCc1ccccc1)c1ccccc1
AC50: 22.1 µM

O=C(/C=C/Nc1ccccc1Br)c1ccccn1
AC50: 0.899 µM

CCN1CCN(C2=C(NS(=O)(=O)c3ccc(Br)cc3)C(=O)c3ccccc3C2=O)CC1
AC50: 5.71 µM

Cc1cc(NCCCn2ccnc2)n2ncc(-c3ccccc3)c2n1
AC50: 11 µM

Cc1cc(C)cc(OCC(=O)N/N=C/c2ccc([N+](=O)[O-])o2)c1
AC50: 7.12 µM

O=C(Cn1ncc(Cl)c(Cl)c1=O)c1ccc(Cl)cc1
AC50: 8.81 µM

CC1CCCCC1NC(=O)/C(C#N)=C/C=C/c1ccccc1[N+](=O)[O-] (centres undefined)
AC50: 7.92 µM

Cc1cccc(NC(=O)c2ccc([N+](=O)[O-])o2)c1C
AC50: 14.8 µM

COc1ccccc1N1C(=O)N(C(C)=O)C2C1Nc1ccccc1N2C (centres undefined)
AC50: 10.5 µM

CCOc1ccc(-c2cc(C)[n+](CCO)c(-c3ccc(OCC)cc3)c2)cc1
AC50: 11.1 µM

N#CC(C#N)=C1C=CC=CN1/C(=C\c1ccco1)C(=O)c1ccc(Cl)cc1
AC50: 6.85 µM

CCOc1ccc(/C=C2\SC(=S)N(CCC(=O)O)C2=O)cc1
AC50: 0.577 µM

CC(/C=N/NC(=O)c1cc(-c2ccncc2)nc2ccccc12)=C\c1ccco1
AC50: 2.4 µM

Cc1ccc(-c2cn3nc(C)c(C)nc3n2)cc1
AC50: 5.3 µM

O=C(O)c1cc(N/N=C/C(Cl)=C/c2ccccc2)ccc1Cl
AC50: 10.4 µM

COC(=O)C1=C(CN2CCCc3ccccc32)NC(=O)NC1c1ccc(F)cc1 (centres undefined)
AC50: 2.16 µM

O=C(O)c1cccc(N/N=C/c2cccs2)c1
AC50: 1.51 µM

CCc1ccc(NC2=CC(=O)C(=O)c3ccccc32)cc1
AC50: 3.59 µM

Cc1oc(-c2ccc(Cl)cc2)nc1CN1CCC(C(=O)NCCCN2CCCC(C)C2)CC1 (centres undefined)
AC50: 13.2 µM

COc1cnc(-c2ccccn2)nc1NC(C)C
AC50: 12.4 µM

Clc1ccc(-c2c[n+](Cc3cccc(Cl)c3)c3n2CCC3)cc1
AC50: 8.77 µM

O=C(C[n+]1cccc2ccccc21)c1ccc([N+](=O)[O-])cc1
AC50: 6.21 µM

O=C(c1ccc(F)cc1)C(CN1CCOCC1)c1ccccc1 (centres undefined)
AC50: 5.96 µM

Cc1ccc(C#CC[N+]2(CC#Cc3ccc(C)cc3)CCCCC2)cc1
AC50: 3.95 µM

COc1ccc(/C=C2\SC(=S)N(CCCC(=O)NNC(=O)c3ccccc3O)C2=O)cc1
AC50: 1.38 µM

Cc1ccc2nc(NC(=O)CCCC(=O)O)sc2c1
AC50: 12.1 µM

Cc1cnc(NC(=O)c2nn(C)cc2[N+](=O)[O-])s1
AC50: 20.6 µM

COc1ccccc1OCC(=O)N/N=C/C=C/c1ccc([N+](=O)[O-])o1
AC50: 7.39 µM

COC(=O)CCS(=O)(=O)c1nc(-c2ccccc2)cc(C(F)(F)F)n1
AC50: 5.85 µM

CCc1ccccc1NC(=O)CN(C)C(=O)Cn1ncc(Cl)c(Cl)c1=O
AC50: 11 µM

CS(=O)(=O)N1CCN(c2ccc(NC(=O)c3ccc([N+](=O)[O-])o3)cc2)CC1
AC50: 4.92 µM

COc1cc(/C=C/C(=O)N2CCC=CC2=O)cc(OC)c1OC
AC50: 7.4 µM

COC(=O)C1=C(C)N(Cc2ccccc2)C(=NCC(C)C)N[C@H]1c1cccc(C(F)(F)F)c1
AC50: 15 µM

Cc1cc(C(=O)CN2C(=O)c3ccccc3S2(=O)=O)c(C)n1-c1ccccc1
AC50: 3.45 µM

COc1ccc(-c2cc3c(nn2)-c2ccccc2C3=O)cc1
AC50: 4.22 µM

COc1ccc(Br)cc1C(C[N+](=O)[O-])c1c(N)n(C)c(=O)n(C)c1=O (centres undefined)
AC50: 8.73 µM

CN(Cc1ccccc1)C1=CC(=[N+]2CCCCC2)CC(C)(C)C1
AC50: 2.46 µM

Oc1c(CN2CCCC2)cc(COCc2ccccc2)c2cccnc12
AC50: 6.15 µM

CN(C)C1CCN(Cc2cc(COCc3ccccc3)c3cccnc3c2O)C1 (centres undefined)
AC50: 9.99 µM

O=C(Nc1nc2cc3c(cc2s1)OCO3)C1=COCCO1
AC50: 3.77 µM

Cc1ccc(C(=O)Nc2cnc3ccccc3c2)cc1
AC50: 1.15 µM

NNC(=O)c1cc2ccccc2cc1O
AC50: 24 µM

COCCNC(=O)/C(C#N)=C/c1cccc(/C=C(\C#N)C(=O)NCCOC)c1
AC50: 12.7 µM

Cc1ccc2nc(C)cc(Nc3ccc([N+](=O)[O-])cc3)c2c1
AC50: 5.88 µM

CC(=O)N(C)C1=C(N2CCOCC2)C(=O)c2ccccc2C1=O
AC50: 3.5 µM

COc1ccc(C(=O)/C=C/C(=O)N(CC(=O)NC2CCCCC2)Cc2ccccc2)c(O)c1
AC50: 5.24 µM
